Experimental data published in patent publication US3970648A, “2-[2-(5-Nitro-2-furyl)vinyl]-4-(anilino)quinazolines” (Diamond Shamrock Corporation, priority 1974, dated 1976).

How the values were obtained:
[1] = tested on: Staphylococcus aureus; experiment: Bactericide test, Staphylococcus aureus (agar streak plate); format: cell-based
From the text: (§1) Test formulations were examined for bactericidal and/or bacteriostatic activity against the test organisms shown in Tables A and B. These organisms were chosen as being representative of commercially important pathogens affecting animal agriculture. The antibiotic chlortetracycline was chosen as a positive control, since it has a broad spectrum of activity against a large number of organisms, and its activity can be used for comparative purposes.
(§2) Basic test formulations of the product of Examples I, II, III, and of chlortetracycline were prepared by dissolving 16 mg (0.016 g) in 2.0 ml of stock emulsifier solution (0.25% Triton X-155 in acetone by volume) and making each solution up to 50 ml with deionized water. The concentration of the test compound in the basic formulation was 320 ppm. Lower concentrations of the test compound were obtained by diluting the basic formulation with a 4% solution of the stock emulsifier in deionized water so that each dilution in the series differed only in test compound content.
(§3) Nutrient-tryptic soy agar (NTA) consisting of 2.0% Difco Bactoagar 0.8% nutrient broth (Difco), and 0.5% tryptic soy broth (Difco) was prepared and sterilized by autoclaving. A 2 ml aliquot of each test formulation was added to 8 ml of molten NTA. This mixture was then plated in a sterile polystyrene petri dish (100 × 15 mm). After the agar was set, suspensions of each of the test organisms were simultaneously streaked onto the surface of the agar. The inoculated plates were incubated for 48 hr at 28°C. The inhibition of growth of each organism was rated by visual comparison with the organism developing on non-treated agar. Growth inhibition reported as per cent control was rated in three categories as follows: 0% control, growth equivalent to that on non-treated agar; 50% control, sparse development and separated colonies; 100% control, no visible growth or development of colonies.
(§4) Test formulations of the product of Example IV were examined for bactericidal and/or bacteriostatic activity against the test organisms shown in Table B using the Bactericide Test described in Example V. The inhibition of organism growth with each diluted test formulation was rated visually by comparison with the organism developing on a non-treated control agar plate. Growth inhibition reported as per cent control was rated in three categories as follows: 0% control, growth equivalent to that on non-treated agar; 50% control is sparse development and separated colonies; and 100% control, development of individual colonies was not apparent.

[2] = tested on: Streptococcus faecalis; experiment: Bactericide test, Streptococcus faecalis (agar streak plate); format: cell-based
From the text: as §1, §2, §3, §4

[3] = tested on: Salmonella cholerasuis; experiment: Bactericide test, Salmonella cholerasuis (agar streak plate); format: cell-based
From the text: as §1, §2, §3, §4

[4] = tested on: Salmonella gallinarum; experiment: Bactericide test, Salmonella gallinarum (agar streak plate); format: cell-based
From the text: as §1, §2, §3, §4

[5] = tested on: Erysipelothrix rhusiopathiae; experiment: Bactericide test, Erysipelothrix rhusiopathiae (agar streak plate); format: cell-based
From the text: as §1, §2, §3

[6] = tested on: Bordetella bronchiseptica; experiment: Bactericide test, Bordetella bronchiseptica (agar streak plate); format: cell-based
From the text: as §1, §2, §3

[7] = tested on: Salmonella typhimurium; experiment: Bactericide test, Salmonella typhimurium (agar streak plate); format: cell-based
From the text: as §1, §2, §3

[8] = tested on: Streptococcus agalactiae; experiment: Bactericide test, Streptococcus agalactiae (agar streak plate); format: cell-based
From the text: as §1, §2, §3

[9] = tested on: Streptococcus group E; experiment: Bactericide test, Streptococcus group E (agar streak plate); format: cell-based
From the text: as §1, §2, §3

[10] = tested on: Vibrio coli; experiment: Bactericide test, Vibrio coli (agar streak plate); format: cell-based
From the text: as §1, §2, §3

[11] = Growth promotion in chicks at 25 g/T, Example X (Table IV); format: in vivo, broiler cross chicks
From the text: (§5) This example compares growth promotion activity of the product of Example I with other growth promotants at a concentration of 25 g/T in the Basal Ration described in Example VII. The other growth promotants include the product described in Example I of U.S. Pat. No. 3,542,784 -- Burch and quinoxaline-1,4-dioxide. Day old broiler cross chicks were weight equalized into groups of eight chicks each, and four replicates of eight chicks each were fed the experimental rations over a 4 week period.

[12] = Growth promotion in chicks, Example XII first set (Table VI); format: in vivo, broiler cross chicks; conditions: for Average 4 Week Performance: Feed Efficiency / Average 4 Week Performance: Gain / Improved Response Over Basal Ration: Feed Efficiency / Improved Response Over Basal Ration: Gain: 25 g/T in basal ration, 4 weeks; for growth rate / feed efficiency, production parameters (in words): 25 g/T, first set of tests
From the text: as §5, with “period. […]” for “period.”

[13] = Growth promotion in chicks, Example XII repeat (Table VII); format: in vivo, broiler cross chicks; conditions: for growth rate / feed efficiency, production parameters (in words): 25 g/T, second set of tests
From the text: as §5
The growth promotion tests described in Example X were repeated with the additional testing the products of Examples II and III.

[14] = Growth promotion in chicks at low feed levels, Example VIII (Table II); format: in vivo, broiler cross chicks; conditions: 10 g/T in basal ration; 4 weeks
From the text: Day old broiler cross chicks were weight equalized into groups of eight chicks each and were placed in battery brooders. The 32 chick treatment groups (four replicates) were fed one of the five rations described below for a 4 week period. Weekly measurements of body weights and feed consumption were made by replicate, and these measurements used to calculate weight gain and feed efficiency.
The basal ration was the basal ration used in Example VII above. The remaining five rations were obtained by mixing the indicated quantities of bacitracin (4 g/T), chlortetracycline (10 g/T), product of Example I (10 g/T), and product of Example III of U.S. Pat. No. 3,542,784 -- Burch (10 g/T) as growth promotants with the basal ration.

[15] = 100% inhibition at lower concentrations
[16] = 25 g/T in basal ration, 4 weeks

## 2-[2-(5-nitro-2-furyl)vinyl]-4-(o-hydroxyanilino)quinazoline [Example III]
[1]; 0.125 ppm
  % Inhibition: 0%
[1]; 0.25 ppm
  % Inhibition: 0%
[1]; 0.5 ppm
  % Inhibition: 0%
[1]; 1 ppm
  % Inhibition: 0%
[1]; 2 ppm
  % Inhibition: 0%
[1]; 4 ppm
  % Inhibition: 0%
[1]; 8 ppm
  % Inhibition: 0%
[1]; 16 ppm
  % Inhibition: 0%
[1]; 32 ppm
  % Inhibition: 0%
[1]; 64 ppm
  % Inhibition: 0%
[2]; 0.125 ppm
  % Inhibition: 0%
[2]; 0.25 ppm
  % Inhibition: 0%
[2]; [15]
  effectiveness compared with chlortetracycline (in words): considerably more effective
[3]; 0.125 ppm
  % Inhibition: 0%
[3]; 0.25 ppm
  % Inhibition: 0%
[3]; 0.5 ppm
  % Inhibition: 0%
[3]; 1 ppm
  % Inhibition: 0%
[3]; 2 ppm
  % Inhibition: 0%
[3]; 16 ppm
  % Inhibition: 100%
[3]; 32 ppm
  % Inhibition: 100%
[3]; 64 ppm
  % Inhibition: 100%
[4]; 0.125 ppm
  % Inhibition: 0%
[4]; 0.25 ppm
  % Inhibition: 0%
[4]; 0.5 ppm
  % Inhibition: 0%
[4]; 1 ppm
  % Inhibition: 0%
[4]; 2 ppm
  % Inhibition: 0%
[4]; 4 ppm
  % Inhibition: 50%
[4]; 8 ppm
  % Inhibition: 50%
[4]; 16 ppm
  % Inhibition: 100%
[4]; 32 ppm
  % Inhibition: 100%
[4]; 64 ppm
  % Inhibition: 100%
[5]; 1 ppm
  % Inhibition: 100%
[5]; 2 ppm
  % Inhibition: 100%
[5]; 4 ppm
  % Inhibition: 100%
[5]; 8 ppm
  % Inhibition: 100%
[5]; 16 ppm
  % Inhibition: 100%
[5]; 32 ppm
  % Inhibition: 100%
[5]; 64 ppm
  % Inhibition: 100%
[5]; [15]
  effectiveness compared with chlortetracycline (in words): considerably more effective
[6]; 0.125 ppm
  % Inhibition: 100%
[6]; 0.25 ppm
  % Inhibition: 100%
[6]; 0.5 ppm
  % Inhibition: 100%
[6]; 1 ppm
  % Inhibition: 100%
[6]; 2 ppm
  % Inhibition: 100%
[6]; 4 ppm
  % Inhibition: 100%
[6]; 8 ppm
  % Inhibition: 100%
[6]; 16 ppm
  % Inhibition: 100%
[6]; 32 ppm
  % Inhibition: 100%
[6]; 64 ppm
  % Inhibition: 100%
[6]; [15]
  effectiveness compared with chlortetracycline (in words): considerably more effective
[7]; 0.125 ppm
  % Inhibition: 0%
[7]; 0.25 ppm
  % Inhibition: 0%
[7]; 0.5 ppm
  % Inhibition: 0%
[7]; 1 ppm
  % Inhibition: 0%
[7]; 2 ppm
  % Inhibition: 0%
[7]; 4 ppm
  % Inhibition: 0%
[7]; 8 ppm
  % Inhibition: 0%
[7]; 16 ppm
  % Inhibition: 0%
[7]; 32 ppm
  % Inhibition: 0%
[7]; 64 ppm
  % Inhibition: 0%
[8]; 0.125 ppm
  % Inhibition: 100%
[8]; 0.25 ppm
  % Inhibition: 100%
[8]; 0.5 ppm
  % Inhibition: 100%
[8]; 1 ppm
  % Inhibition: 100%
[8]; 2 ppm
  % Inhibition: 100%
[8]; 4 ppm
  % Inhibition: 100%
[8]; 8 ppm
  % Inhibition: 100%
[8]; 16 ppm
  % Inhibition: 100%
[8]; 32 ppm
  % Inhibition: 100%
[8]; 64 ppm
  % Inhibition: 100%
[8]; [15]
  effectiveness compared with chlortetracycline (in words): considerably more effective
[9]; 0.125 ppm
  % Inhibition: 100%
[9]; 0.25 ppm
  % Inhibition: 100%
[9]; 0.5 ppm
  % Inhibition: 100%
[9]; 1 ppm
  % Inhibition: 100%
[9]; 2 ppm
  % Inhibition: 100%
[9]; 4 ppm
  % Inhibition: 100%
[9]; 8 ppm
  % Inhibition: 100%
[9]; 16 ppm
  % Inhibition: 100%
[9]; 32 ppm
  % Inhibition: 100%
[9]; 64 ppm
  % Inhibition: 100%
[9]; [15]
  effectiveness compared with chlortetracycline (in words): considerably more effective
[10]; 0.125 ppm
  % Inhibition: 100%
[10]; 0.25 ppm
  % Inhibition: 100%
[10]; 0.5 ppm
  % Inhibition: 100%
[10]; 1 ppm
  % Inhibition: 100%
[10]; 2 ppm
  % Inhibition: 100%
[10]; 4 ppm
  % Inhibition: 100%
[10]; 8 ppm
  % Inhibition: 100%
[10]; 16 ppm
  % Inhibition: 100%
[10]; 32 ppm
  % Inhibition: 100%
[10]; 64 ppm
  % Inhibition: 100%
[10]; [15]
  effectiveness compared with chlortetracycline (in words): considerably more effective
[11]; [16]
  Average 4 Week Performance: Feed Efficiency: 1.503
  Average 4 Week Performance: Gain: 812.7 g
  Improved Response Over Basal Ration: Feed Efficiency: +3.2%
  Improved Response Over Basal Ration: Gain: +6.2%
[12]
  Average 4 Week Performance: Feed Efficiency: 1.597
  Average 4 Week Performance: Gain: 766.9 g
  Improved Response Over Basal Ration: Feed Efficiency: +2.3%
  Improved Response Over Basal Ration: Gain: +3.1%
  growth rate / feed efficiency, production parameters (in words): moderate improvements
[13]; [16]
  Average 4 Week Performance: Feed Efficiency: 1.669
  Average 4 Week Performance: Gain: 723.7 g
  Improved Response Over Basal Ration: Feed Efficiency: +6.5%
  Improved Response Over Basal Ration: Gain: +6.0%
[13]
  growth rate / feed efficiency, production parameters (in words): more substantial response

## O=[N+]([O-])c1ccc(-c2nc(Nc3ccc(O)cc3)c3ccccc3n2)o1 [2-(5-nitro-2-furyl)-4-(p-hydroxyanilino)quinazoline, reference compound]
[14]
  Average 4 Week Performance: Feed Efficiency: 1.726
  Average 4 Week Performance: Gain: 723.1 g
  Improved Response Over Basal Ration: Feed Efficiency: +1.9%
  Improved Response Over Basal Ration: Gain: +0.4%
[11]; 25 g/T
  effect on feed efficiency (in words): slight, if any, effect on feed efficiency
  growth response (in words): appeared to give a growth response
[12]
  Average 4 Week Performance: Feed Efficiency: 1.675
  Average 4 Week Performance: Gain: 736.9 g
  Improved Response Over Basal Ration: Feed Efficiency: -2.5%
  Improved Response Over Basal Ration: Gain: -1.0%
  growth rate / feed efficiency, production parameters (in words): essentially no effect on growth rate or feed efficiency
[13]
  growth rate / feed efficiency, production parameters (in words): essentially no effect on growth rate or feed efficiency
